Literature values in US20230035389A1, “ANTIVIRAL COMPOSITION BASED ON EXTRACTS OF […] […] USEFUL FOR TREATING LESIONS CAUSED BY […] VIRUS” (PONTIFICIA UNIVERSIDAD CATOLICA DE CHILE, priority 2019, published 2023).

System: herpes simplex virus
Details: topical, background statement

Nc1nc2c(ncn2COCCO)c(=O)[nH]1 [Acyclovir]
Reduction of the duration of herpetic lesions: 1.0 days
